In US20240208912A1 (Mirati Therapeutics, Inc., priority 2021, published 2024):
Where two headings read alike, the source gives them in different places.

How the values were obtained:
PRMT5/MEP50 complex = target: T1, PRMT5/MEP50 complex (Homo sapiens, UniProt O14744); assay: PRMT5:MEP50 HotSpot Assay (full-length histone H2A substrate, plus and minus MTA); assay type: biochemical; settings: IC50 + 2 μM MTA, in the presence of 2 μM MTA
T1 construct: purchased Reaction Biology Corporation
Outline: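 Tritiated product on full-length recombinant H2A was counted by scintillation after the stopped reaction was captured on filter paper. Substrate is histone H2A; conditions include plus and minus MTA.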

[1] = tested on: HCT116 homozygous MTAP knockout cells; assay: Proliferation assay (CellTiter-Glo, 10 days) in HCT116 homozygous MTAP knockout cells; assay type: cell-based; settings: CellTiter-Glo after 10 days of treatment, read-out: Proliferation IC50 (nM) HCT116 MTAP_KO
Outline: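 CellTiter-Glo viability read on day 11 gives a 10-day IC50. Dosing began one day after seeding, with a 1:10 split into fresh drug-containing medium on day 6. Cells are HCT116 lacking both MTAP alleles via CRISPR/Cas9, run alongside the parental line.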

[2] = tested on: PRMT5-dependent Symmetric Di-methyl Arginine signal in HCT116 homozygous MTAP Knockout cells; assay: SYM11 In-Cell Western in HCT116 homozygous MTAP knockout cells; assay type: cell-based; settings: 4 days of treatment, SYM11/DRAQ5 ratio as percent of DMSO control, read-out: In-cell-Western (SYM11) IC50 (nM) HCT116 MTAP_KO
Experimental: HCT116 cells were genetically engineered to knock out the function of both MTAP alleles using a CRISPR/Cas9 system and an sgRNA targeting the MTAP gene. Following Cas9/MTAP sgRNA transduction, clones were screened to confirm that each allele of the MTAP gene had been inactivated (i.e., homozygous MTAP knock out) creating an MTAP-deficient cell.
Control samples were analyzed in parallel.
Briefly, on Day 0, 2,000 HCT116 parental or HCT116 homozygous MTAP knockout cells were seeded in 96 well plates in McCoy's 5A supplemented with 10% fetal bovine serum and pen/strep and the cells were incubated overnight at 37° C. plus 5% CO2. The following day, cells were treated with DMSO vehicle control or a dose response of PRMT5 inhibitors, and incubated at 37° C. plus 5% CO^2 for four days.
After 4 days of treatment, the cells were fixed by adding 50 μl of 4% paraformaldehyde solution to each well and the cells were incubated for 20 min at room temperature. The paraformaldehyde solution was removed, 150 μl of ice-cold methanol was added and the plate was placed −20° C. for 10 minutes. The methanol was removed, 150 μl of Odyssey Blocking buffer+0.05% Tween20 was added and the plate was incubated at room temperature with shaking for one hour.
The primary SYM11 antibody solution was removed by aspiration and the wells were washed three consecutive times with phosphate buffered saline containing 0.1% Tween-20 (PBST).
The secondary antibody solution was removed by aspiration and the wells were washed three consecutive times with PBST.
The SYM11 signal and the DRAQ5 signal were quantified using a Li-Cor Odyssey machine reading at […], respectively. The SYM11/DRAQ5 ratio was used to calculate the inhibition of Symmetric Dimethyl Arginine as percent of DMSO control.

T1 sequence (O14744 2-637 limits assumed): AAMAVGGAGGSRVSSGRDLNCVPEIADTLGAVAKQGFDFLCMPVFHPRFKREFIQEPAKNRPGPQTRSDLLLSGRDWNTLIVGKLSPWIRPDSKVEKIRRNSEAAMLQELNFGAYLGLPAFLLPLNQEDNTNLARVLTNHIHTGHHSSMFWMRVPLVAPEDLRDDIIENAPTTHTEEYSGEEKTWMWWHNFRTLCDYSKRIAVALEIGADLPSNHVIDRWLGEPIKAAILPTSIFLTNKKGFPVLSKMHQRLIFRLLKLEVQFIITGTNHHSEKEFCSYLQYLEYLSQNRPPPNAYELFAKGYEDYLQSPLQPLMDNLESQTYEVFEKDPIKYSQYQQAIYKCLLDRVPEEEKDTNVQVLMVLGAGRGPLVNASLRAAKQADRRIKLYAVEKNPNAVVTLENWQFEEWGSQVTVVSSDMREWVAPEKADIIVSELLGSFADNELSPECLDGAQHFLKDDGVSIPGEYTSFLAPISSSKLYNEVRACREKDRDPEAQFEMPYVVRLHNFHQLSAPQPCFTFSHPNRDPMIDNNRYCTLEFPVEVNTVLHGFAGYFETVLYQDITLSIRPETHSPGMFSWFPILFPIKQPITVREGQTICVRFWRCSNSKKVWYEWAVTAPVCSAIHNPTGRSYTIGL
T1 sequence (Q9BQA1 2-342 partner limits assumed): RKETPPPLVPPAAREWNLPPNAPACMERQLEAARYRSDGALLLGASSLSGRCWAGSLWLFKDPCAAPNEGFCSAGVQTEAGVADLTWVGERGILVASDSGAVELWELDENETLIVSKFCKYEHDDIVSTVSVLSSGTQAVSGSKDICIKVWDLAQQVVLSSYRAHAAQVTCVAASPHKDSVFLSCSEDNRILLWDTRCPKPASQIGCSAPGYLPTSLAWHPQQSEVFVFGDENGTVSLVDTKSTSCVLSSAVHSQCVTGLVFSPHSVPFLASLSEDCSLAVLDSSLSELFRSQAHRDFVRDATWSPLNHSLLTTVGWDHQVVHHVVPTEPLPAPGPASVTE

| Compound | IC50 (PRMT5/MEP50 complex) [nM] | IC50 [1] [nM] | IC50 [2] [nM] | IC50 ([1]; Homo sapiens, HCT-116, 240 h) [nM] | IC50 ([2]; Homo sapiens, HCT-116, 96 h) [nM] |
| --- | --- | --- | --- | --- | --- |
| Cc1c(F)c(-c2c(-c3cc(C)c4c(=O)[nH]nc(CN)c4c3)cnn2C)c(C#N)c2ccccc12 (single isomer, unassigned) [Example 16-42, (M)-2-[4-[4-(aminomethyl)-8-methyl-1-oxo-2H-phthalazin-6-yl]-2-methyl-pyrazol-3-yl]-3-fluoro-4-methyl-naphthalene-1-carbonitrile] | 4.55 | 7 | 6 |  |  |
| Cc1cc(OC2CC2)c(C#N)c(-c2c(-c3cc(C)c4c(=O)[nH]nc(CN)c4c3)cnn2C)c1F (single isomer, unassigned) [Example 16-44, (M)-2-(4-(4-(aminomethyl)-8-methyl-1-oxo-1,2-dihydrophthalazin-6-yl)-1-methyl-1H-pyrazol-5-yl)-6-cyclopropoxy-3-fluoro-4-methylbenzonitrile] | 69.5 | 20 | 13 |  |  |
| Cn1ncc(-c2ccc3c(=O)[nH]nc(CN)c3c2)c1-c1c(Cl)cc2ccccc2c1Cl [Example 4-259, 4-(aminomethyl)-6-[5-(1,3-dichloro-2-naphthyl)-1-methyl-pyrazol-4-yl]-2H-phthalazin-1-one] |  |  |  | 837 | 97 |
| Cc1cc(-c2cnn(C)c2-c2c(F)c(Cl)cc(OC3CC3)c2C#N)cc2c(CN)n[nH]c(=O)c12 (single isomer, unassigned) [Example 16-45, (P)-2-[4-[4-(aminomethyl)-8-methyl-1-oxo-2H-phthalazin-6-yl]-2-methyl-pyrazol-3-yl]-4-chloro-6-(cyclopropoxy)-3-fluoro-benzonitrile] | 1970 | 798 | 282 |  |  |
| Cc1cc(-c2cnn(C)c2-c2c(C#N)cc3ccccc3c2Cl)cc2c(CN)n[nH]c(=O)c12 [Example 10-26, 3-[4-[4-(aminomethyl)-8-methyl-1-oxo-2H-phthalazin-6-yl]-2-methyl-pyrazol-3-yl]-4-chloro-naphthalene-2-carbonitrile] |  |  |  | 83 | 35 |
| Cn1ncc(-c2cc(Cl)c3c(=O)[nH]nc(CN)c3c2)c1-c1c(F)c(Cl)cc(OC2CC2)c1C#N [Example 10-25, 2-[4-[4-(aminomethyl)-8-chloro-1-oxo-2H-phthalazin-6-yl]-2-methyl-pyrazol-3-yl]-4-chloro-6-(cyclopropoxy)-3-fluoro-benzonitrile] |  |  |  | 30 | 8 |
| Cn1ncc(-c2ccc3c(=O)[nH]nc(CN)c3c2)c1-c1cccc2cccc(C#N)c12 [Example 4-265, 8-[4-[4-(aminomethyl)-1-oxo-2H-phthalazin-6-yl]-2-methyl-pyrazol-3-yl]naphthalene-1-carbonitrile] |  |  |  | 1650 | 1000 |
| Cc1cc(-c2cnn(C)c2-c2c(F)c(Cl)c3ccccc3c2C#N)cc2c(CN)n[nH]c(=O)c12 (atropisomer, axis not shown; (P)) [Example 16-17, (P)-2-[4-[4-(aminomethyl)-8-methyl-1-oxo-2H-phthalazin-6-yl]-2-methyl-pyrazol-3-yl]-4-chloro-3-fluoro-naphthalene-1-carbonitrile] |  | 285 | 129 |  |  |
| Cn1ncc(-c2ccc3c(=O)[nH]nc(CN)c3c2)c1-c1ccc2ccc(Cl)cc2c1C#N [Example 4-258, 2-[4-[4-(aminomethyl)-1-oxo-2H-phthalazin-6-yl]-2-methyl-pyrazol-3-yl]-7-chloro-naphthalene-1-carbonitrile] |  |  |  | 89 | 28 |
| Cc1cc(-c2cnn(C)c2-c2c(F)c(Cl)c3ccccc3c2C#N)cc2c(CN)n[nH]c(=O)c12 (atropisomer, axis not shown; (M)) [Example 16-18, (M)-2-[4-[4-(aminomethyl)-8-methyl-1-oxo-2H-phthalazin-6-yl]-2-methyl-pyrazol-3-yl]-4-chloro-3-fluoro-naphthalene-1-carbonitrile] |  | 19 | 13 |  |  |
| Cn1ncc(-c2ccc3c(=O)[nH]nc(CN)c3c2F)c1-c1ccc2ccccc2c1C#N [Example 17-2, 2-[4-[4-(aminomethyl)-5-fluoro-1-oxo-2H-phthalazin-6-yl]-2-methyl-pyrazol-3-yl]naphthalene-1-carbonitrile] |  |  |  | 432 | 80 |
